One assay deals with Puccinia triticina. The experiment in a line: Wheat brown rust (PUCCRT) disease control on wheat seedlings. The format is in vivo. The arrangement: key to PUCCRT 3DC, HV activity at 100 ppm (% control rating) / PUCCRT disease control, 3DC / PUCCRT 1DP disease control rating, HV activity / PUCCRT 3DC disease control rating, HV activity / PUCCRT 3DC, LV activity at 125.1 g/H (% Control rating) / PUCCRT 1DP, LV activity at 125.1 g/H (% Control rating) / PUCCRT 3DC disease control rating, LV activity at 125.1 g/H / PUCCRT 1DP disease control rating, LV activity at 125.1 g/H / PUCCRT 3DC disease control rating, HV activity at 100 ppm / PUCCRT 1DP disease control rating, HV activity at 100 ppm / HV activity at 100 ppm PUCCRT 3DC (disease control rating) / LV activity at 125.1 g/H PUCCRT 1DP (disease control rating) / LV activity at 125.1 g/H PUCCRT 3DC (disease control rating): A: > 80; B: ≤ 80; C: Not Tested; D: No Activity Observed in the Reported Assay. The note with it: for PUCCRT 1DP disease control rating, HV activity / PUCCRT 3DC disease control rating, HV activity: HV application at 100 ppm; for PUCCRT 1DP disease control rating, HV activity / PUCCRT 1DP, LV activity at 125.1 g/H (% Control rating) / LV activity at 125.1 g/H PUCCRT 1DP (disease control rating): 1 Day Protectant; for PUCCRT 1DP disease control rating, HV activity / PUCCRT 3DC disease control rating, HV activity / LV activity at 125.1 g/H PUCCRT 1DP (disease control rating) / LV activity at 125.1 g/H PUCCRT 3DC (disease control rating): wheat brown rust; for PUCCRT 3DC disease control rating, HV activity / PUCCRT 3DC, LV activity at 125.1 g/H (% Control rating) / LV activity at 125.1 g/H PUCCRT 3DC (disease control rating): 3 Day Curative; for PUCCRT 1DP, LV activity at 125.1 g/H (% Control rating) / PUCCRT 3DC, LV activity at 125.1 g/H (% Control rating) / LV activity at 125.1 g/H PUCCRT 1DP (disease control rating) / LV activity at 125.1 g/H PUCCRT 3DC (disease control rating): low volume application.

For another assay, the system named is Zymoseptoria tritici. The experiment in a line: Leaf blotch of wheat (SEPTTR) disease control on wheat seedlings. The assay is classed as in vivo. The arrangement: key to SEPTTR 1DP, HV activity at 100 ppm (% control rating) / SEPTTR 3DC, HV activity at 100 ppm (% control rating) / SEPTTR disease control, 1DP / SEPTTR disease control, 3DC / SEPTTR 1DP disease control rating, HV activity / SEPTTR 3DC disease control rating, HV activity / SEPTTR 3DC, LV activity at 125.1 g/H (% Control rating) / SEPTTR 1DP, LV activity at 125.1 g/H (% Control rating) / SEPTTR 1DP disease control rating, LV activity at 125.1 g/H / SEPTTR 3DC disease control rating, LV activity at 125.1 g/H / SEPTTR 3DC disease control rating, HV activity at 100 ppm / SEPTTR 1DP disease control rating, HV activity at 100 ppm / HV activity at 100 ppm SEPTTR 3DC (disease control rating) / HV activity at 100 ppm SEPTTR 1DP (disease control rating) / LV activity at 125.1 g/H SEPTTR 1DP (disease control rating) / LV activity at 125.1 g/H SEPTTR 3DC (disease control rating): A: > 80; B: ≤ 80; C: Not Tested; D: No Activity Observed in the Reported Assay. The note with it: for SEPTTR 1DP disease control rating, HV activity / SEPTTR 3DC disease control rating, HV activity: HV application at 100 ppm; for SEPTTR 1DP disease control rating, HV activity / SEPTTR 1DP, LV activity at 125.1 g/H (% Control rating) / LV activity at 125.1 g/H SEPTTR 1DP (disease control rating): 1 Day Protectant; for SEPTTR 1DP disease control rating, HV activity / SEPTTR 3DC disease control rating, HV activity / LV activity at 125.1 g/H SEPTTR 1DP (disease control rating) / LV activity at 125.1 g/H SEPTTR 3DC (disease control rating): wheat leaf blotch; for SEPTTR 3DC disease control rating, HV activity / SEPTTR 3DC, LV activity at 125.1 g/H (% Control rating) / LV activity at 125.1 g/H SEPTTR 3DC (disease control rating): 3 Day Curative; for SEPTTR 1DP, LV activity at 125.1 g/H (% Control rating) / SEPTTR 3DC, LV activity at 125.1 g/H (% Control rating) / LV activity at 125.1 g/H SEPTTR 1DP (disease control rating) / LV activity at 125.1 g/H SEPTTR 3DC (disease control rating): low volume application.

Setting [1] is: high volume application, 100 ppm, 1 day protectant.
[2] abbreviates: high volume application, 100 ppm, 3 day curative.

For `CC[C@H](Oc1ccccc1)[C@@H](Oc1ccccc1)[C@H](C)OC(=O)[C@H](C)NC(=O)c1nccc(OC)c1O` [Cmpd 309], in the assay on Puccinia triticina, the “PUCCRT 1DP disease control rating, HV activity” value is listed as “A (> 80)” and the “PUCCRT 3DC disease control rating, HV activity” value is “A (> 80)”. In the assay on Zymoseptoria tritici, the “SEPTTR 1DP disease control rating, HV activity” value was “A (> 80)” and the “SEPTTR 3DC disease control rating, HV activity” value is listed as “B (≤ 80)”.
On to `CC[C@H](NC(=O)c1nccc(OC)c1OC(C)=O)C(=O)O[C@@H](C)[C@@H](COc1ccccc1)Oc1ccccc1` [Cmpd 489], for which, in the assay with Puccinia triticina, the “PUCCRT 1DP, LV activity at 125.1 g/H (% Control rating)” value (“PUCCRT 1DP … (% Control rating)” for short) is recorded as “A (> 80)” and the “PUCCRT 3DC, LV activity at 125.1 g/H (% Control rating)” value (“PUCCRT 3DC … (% Control rating)” below) is “A (> 80)”. Also, in the assay with Zymoseptoria tritici, the “SEPTTR 1DP, LV activity at 125.1 g/H (% Control rating)” value (shortened to “SEPTTR 1DP … (% Control rating)”) is recorded as “A (> 80)” and the “SEPTTR 3DC, LV activity at 125.1 g/H (% Control rating)” value (“SEPTTR 3DC … (% Control rating)” for short) was “A (> 80)”.
For `CC(NC(=O)c1ncccc1O)C(=O)OC(C)C(Oc1ccccc1)C(C)C` (stereo not shown) [Cmpd 424], in the assay on Puccinia triticina, the “PUCCRT 1DP disease control rating, HV activity” value was “A (> 80)” and the “PUCCRT 3DC disease control rating, HV activity” value is “A (> 80)”. Besides, in the assay on Zymoseptoria tritici, the “SEPTTR 1DP disease control rating, HV activity” value is on record as “A (> 80)” and the “SEPTTR 3DC disease control rating, HV activity” value was “A (> 80)”.
Turning to `CCC[C@@H](Oc1cccc(OC)c1)[C@H](C)OC(=O)[C@H](C)NC(=O)c1nccc(OC)c1O` [Cmpd 1013], the “PUCCRT 1DP disease control rating, HV activity at 100 ppm” value in the assay on Puccinia triticina (setting [1]) is “A (> 80)”. Further, the “PUCCRT 3DC disease control rating, HV activity at 100 ppm” value in the assay on Puccinia triticina (setting [2]) is on record as “A (> 80)”. In the assay with Zymoseptoria tritici (setting [1]), the “SEPTTR 1DP disease control rating, HV activity at 100 ppm” value is “B (≤ 80)”. For the same compound, in the assay on Zymoseptoria tritici (setting [2]), the “SEPTTR 3DC disease control rating, HV activity at 100 ppm” value is “B (≤ 80)”.
On to `CCC(CC)[C@@H](Oc1ccccc1Cl)[C@H](C)OC(=O)[C@@H](NC(=O)c1nccc(OC)c1O)C(C)C` [Cmpd 411], for which, in the assay on Puccinia triticina, the “PUCCRT 1DP disease control rating, HV activity” value is recorded as “A (> 80)” and the “PUCCRT 3DC disease control rating, HV activity” value is recorded as “D”. Further, in the assay on Zymoseptoria tritici, the “SEPTTR 1DP disease control rating, HV activity” value is reported as “B (≤ 80)” and the “SEPTTR 3DC disease control rating, HV activity” value was “B (≤ 80)”.
Regarding `CC[C@H](CCC(C)C)[C@@H](OCC1CC1)[C@H](C)OC(=O)[C@H](C)NC(=O)c1nccc(OC)c1OC(C)=O` [Cmpd 507], in the assay with Puccinia triticina, the “PUCCRT 1DP … (% Control rating)” value is “B (≤ 80)” and the “PUCCRT 3DC … (% Control rating)” value is on record as “B (≤ 80)”. Further, in the assay with Zymoseptoria tritici, the “SEPTTR 1DP … (% Control rating)” value is listed as “B (≤ 80)” and the “SEPTTR 3DC … (% Control rating)” value was “B (≤ 80)”.
Consider `CC[C@@H](Cc1ccccc1)[C@H](Oc1ccccc1)[C@H](C)OC(=O)[C@H](C)NC(=O)c1nccc(OC)c1O` [Cmpd 313], for which, in the assay on Puccinia triticina, the “PUCCRT 1DP disease control rating, HV activity” value was “A (> 80)” and the “PUCCRT 3DC disease control rating, HV activity” value was “A (> 80)”. Moreover, in the assay with Zymoseptoria tritici, the “SEPTTR 1DP disease control rating, HV activity” value is listed as “A (> 80)” and the “SEPTTR 3DC disease control rating, HV activity” value was “B (≤ 80)”.
On to `COc1ccnc(C(=O)N[C@H](C(=O)O[C@@H](C)[C@H](Oc2ccc(C(F)(F)F)cc2)c2ccccc2)C(C)C)c1OCOC(C)=O` [Cmpd 584], for which, in the assay on Puccinia triticina, the “PUCCRT 1DP … (% Control rating)” value is “A (> 80)” and the “PUCCRT 3DC … (% Control rating)” value was “B (≤ 80)”. Besides, in the assay with Zymoseptoria tritici, the “SEPTTR 1DP … (% Control rating)” value was “A (> 80)” and the “SEPTTR 3DC … (% Control rating)” value is recorded as “D”.
On to `COc1ccnc(C(=O)N[C@@H](C)C(=O)O[C@@H](C)[C@H](OCC2CC2)C(C)(C)C)c1OC(C)=O` [Cmpd 1071], for which, in the assay on Puccinia triticina, the “LV activity at 125.1 g/H PUCCRT 1DP (disease control rating)” value is recorded as “A (> 80)” and the “LV activity at 125.1 g/H PUCCRT 3DC (disease control rating)” value was “A (> 80)”. In addition, in the assay with Zymoseptoria tritici, the “LV activity at 125.1 g/H SEPTTR 1DP (disease control rating)” value was “B (≤ 80)” and the “LV activity at 125.1 g/H SEPTTR 3DC (disease control rating)” value was “B (≤ 80)”.
On to `COc1ccnc(C(=O)N[C@@H](C)C(=O)O[C@@H](C)[C@H](Oc2ccc(C)cc2)C(C)(C)C)c1OC(C)=O` [Cmpd 1059], for which, in the assay with Puccinia triticina, the “LV activity at 125.1 g/H PUCCRT 1DP (disease control rating)” value is “A (> 80)” and the “LV activity at 125.1 g/H PUCCRT 3DC (disease control rating)” value is given as “A (> 80)”. In the assay on Zymoseptoria tritici, the “LV activity at 125.1 g/H SEPTTR 1DP (disease control rating)” value was “B (≤ 80)” and the “LV activity at 125.1 g/H SEPTTR 3DC (disease control rating)” value was “B (≤ 80)”.
